Assay results as given in PubChem BioAssay AID1259407 (Chemical Carcinogenesis Research Information System (CCRIS), 2018).
The source made the active and inactive calls. The rule behind the calls is not given here.

Tested on: CCRIS mutagenicity, Ames/micronucleus/aberration tests
Assay: CCRIS mutagenicity studies
[1] = Test System: AMES SALMONELLA TYPHIMURIUM, Strain/Indicator: TA98, Metabolic Activation: NONE, Method: PREINCUBATION
[2] = Test System: AMES SALMONELLA TYPHIMURIUM, Strain/Indicator: TA100, Metabolic Activation: NONE, Method: PREINCUBATION
[3] = Test System: AMES SALMONELLA TYPHIMURIUM, Strain/Indicator: TA1535, Metabolic Activation: NONE, Method: PREINCUBATION

CCCCOP(=O)(OCCCC)Oc1ccccc1
mutagenic call (Test System: AMES SALMONELLA TYPHIMURIUM, Strain/Indicator: TA97, Metabolic Activation: HAMSTER, LIVER, S-9, AROCLOR 1254 (10%), Method: PREINCUBATION): inactive; negative
mutagenic call (Test System: AMES SALMONELLA TYPHIMURIUM, Strain/Indicator: TA97, Metabolic Activation: HAMSTER, LIVER, S-9, AROCLOR 1254 (30%), Method: PREINCUBATION): inactive; negative
mutagenic call (Test System: AMES SALMONELLA TYPHIMURIUM, Strain/Indicator: TA97, Metabolic Activation: NONE, Method: PREINCUBATION): inactive; negative
mutagenic call (Test System: AMES SALMONELLA TYPHIMURIUM, Strain/Indicator: TA97, Metabolic Activation: RAT, LIVER, S-9, AROCLOR 1254 (10%), Method: PREINCUBATION): inactive; negative
mutagenic call (Test System: AMES SALMONELLA TYPHIMURIUM, Strain/Indicator: TA97, Metabolic Activation: RAT, LIVER, S-9, AROCLOR 1254 (30%), Method: PREINCUBATION): inactive; negative
mutagenic call (Test System: AMES SALMONELLA TYPHIMURIUM, Strain/Indicator: TA98, Metabolic Activation: HAMSTER, LIVER, S-9, AROCLOR 1254 (10%), Method: PREINCUBATION): inactive; negative
mutagenic call (Test System: AMES SALMONELLA TYPHIMURIUM, Strain/Indicator: TA98, Metabolic Activation: HAMSTER, LIVER, S-9, AROCLOR 1254 (30%), Method: PREINCUBATION): inactive; negative
mutagenic call [1]: inactive; negative
mutagenic call (Test System: AMES SALMONELLA TYPHIMURIUM, Strain/Indicator: TA98, Metabolic Activation: RAT, LIVER, S-9, AROCLOR 1254 (10%), Method: PREINCUBATION): inactive; negative
mutagenic call (Test System: AMES SALMONELLA TYPHIMURIUM, Strain/Indicator: TA98, Metabolic Activation: RAT, LIVER, S-9, AROCLOR 1254 (30%), Method: PREINCUBATION): inactive; negative
mutagenic call (Test System: AMES SALMONELLA TYPHIMURIUM, Strain/Indicator: TA100, Metabolic Activation: HAMSTER, LIVER, S-9, AROCLOR 1254 (10%), Method: PREINCUBATION): inactive; negative
mutagenic call (Test System: AMES SALMONELLA TYPHIMURIUM, Strain/Indicator: TA100, Metabolic Activation: HAMSTER, LIVER, S-9, AROCLOR 1254 (30%), Method: PREINCUBATION): inactive; negative
mutagenic call [2]: inactive; negative
mutagenic call (Test System: AMES SALMONELLA TYPHIMURIUM, Strain/Indicator: TA100, Metabolic Activation: RAT, LIVER, S-9, AROCLOR 1254 (10%), Method: PREINCUBATION): inactive; negative
mutagenic call (Test System: AMES SALMONELLA TYPHIMURIUM, Strain/Indicator: TA100, Metabolic Activation: RAT, LIVER, S-9, AROCLOR 1254 (30%), Method: PREINCUBATION): inactive; negative
mutagenic call (Test System: AMES SALMONELLA TYPHIMURIUM, Strain/Indicator: TA1535, Metabolic Activation: HAMSTER, LIVER, S-9, AROCLOR 1254 (10%), Method: PREINCUBATION): inactive; negative
mutagenic call (Test System: AMES SALMONELLA TYPHIMURIUM, Strain/Indicator: TA1535, Metabolic Activation: HAMSTER, LIVER, S-9, AROCLOR 1254 (30%), Method: PREINCUBATION): inactive; negative
mutagenic call [3]: inactive; negative
mutagenic call (Test System: AMES SALMONELLA TYPHIMURIUM, Strain/Indicator: TA1535, Metabolic Activation: RAT, LIVER, S-9, AROCLOR 1254 (10%), Method: PREINCUBATION): inactive; negative
mutagenic call (Test System: AMES SALMONELLA TYPHIMURIUM, Strain/Indicator: TA1535, Metabolic Activation: RAT, LIVER, S-9, AROCLOR 1254 (30%), Method: PREINCUBATION): inactive; negative

CCOc1ccc(NC(N)=O)cc1
mutagenic call (Test System: AMES SALMONELLA TYPHIMURIUM, Strain/Indicator: TA98, Metabolic Activation: HAMSTER, LIVER, S-9, AROCLOR 1254, Method: PREINCUBATION): inactive; negative
mutagenic call [1]: inactive; negative
mutagenic call (Test System: AMES SALMONELLA TYPHIMURIUM, Strain/Indicator: TA98, Metabolic Activation: RAT, LIVER, S-9, AROCLOR 1254, Method: PREINCUBATION): inactive; negative
mutagenic call (Test System: AMES SALMONELLA TYPHIMURIUM, Strain/Indicator: TA100, Metabolic Activation: HAMSTER, LIVER, S-9, AROCLOR 1254, Method: PREINCUBATION): inactive; negative
mutagenic call [2]: inactive; negative
mutagenic call (Test System: AMES SALMONELLA TYPHIMURIUM, Strain/Indicator: TA100, Metabolic Activation: RAT, LIVER, S-9, AROCLOR 1254, Method: PREINCUBATION): inactive; negative
mutagenic call (Test System: AMES SALMONELLA TYPHIMURIUM, Strain/Indicator: TA1535, Metabolic Activation: HAMSTER, LIVER, S-9, AROCLOR 1254, Method: PREINCUBATION): inactive; negative
mutagenic call [3]: inactive; negative
mutagenic call (Test System: AMES SALMONELLA TYPHIMURIUM, Strain/Indicator: TA1535, Metabolic Activation: RAT, LIVER, S-9, AROCLOR 1254, Method: PREINCUBATION): inactive; negative
mutagenic call (Test System: AMES SALMONELLA TYPHIMURIUM, Strain/Indicator: TA1537, Metabolic Activation: HAMSTER, LIVER, S-9, AROCLOR 1254, Method: PREINCUBATION): inactive; negative
mutagenic call (Test System: AMES SALMONELLA TYPHIMURIUM, Strain/Indicator: TA1537, Metabolic Activation: NONE, Method: PREINCUBATION): inactive; negative
mutagenic call (Test System: AMES SALMONELLA TYPHIMURIUM, Strain/Indicator: TA1537, Metabolic Activation: RAT, LIVER, S-9, AROCLOR 1254, Method: PREINCUBATION): inactive; negative

O=[N+]([O-])c1ccc2ccc3c4ccccc4nc4ccc1c2c43
mutagenic call (Test System: AMES SALMONELLA TYPHIMURIUM, Strain/Indicator: TA98(1,8-DNP6), Metabolic Activation: NONE): active; positive
mutagenic call (Test System: AMES SALMONELLA TYPHIMURIUM, Strain/Indicator: TA98(NR), Metabolic Activation: NONE): active; positive
mutagenic call (Test System: AMES SALMONELLA TYPHIMURIUM, Strain/Indicator: TA98, Metabolic Activation: NONE): active; positive

CC(=O)ON(C(C)=O)c1ccc2c(c1)Cc1ccccc1-2
mutagenic call (Test System: AMES SALMONELLA TYPHIMURIUM, Strain/Indicator: TA98, Metabolic Activation: NONE, Method: STANDARD PLATE): active; positive
mutagenic call (Test System: AMES SALMONELLA TYPHIMURIUM, Strain/Indicator: TA98, Metabolic Activation: RAT, LIVER, S-9, AROCLOR 1254, Method: STANDARD PLATE): active; positive
mutagenic call (Test System: AMES SALMONELLA TYPHIMURIUM, Strain/Indicator: TA1538, Metabolic Activation: NONE, Method: STANDARD PLATE): active; positive
mutagenic call (Test System: AMES SALMONELLA TYPHIMURIUM, Strain/Indicator: TA1538, Metabolic Activation: RAT, LIVER, S-9, KC500 OR PHENOBARBITAL, Method: LIQUID SUSPENSION): active; positive
mutagenic call (Test System: CHINESE HAMSTER V-79, Strain/Indicator: V-79/6-THIOGUANINE, Metabolic Activation: NONE): active; positive
mutagenic call (Test System: CHINESE HAMSTER V-79, Strain/Indicator: V-79/8-AZAGUANINE, Metabolic Activation: NONE, Method: STANDARD PLATE): active; positive
mutagenic call (Test System: UDS HUMAN CELLS, Strain/Indicator: THY INCORP (NON-S-PHASE), Metabolic Activation: NONE, Method: LIQUID SCINTILLATION COUNTING): active; positive
mutagenic call (Test System: UDS HUMAN FIBROBLASTS, Strain/Indicator: THY INCORP (NON-S-PHASE), Metabolic Activation: NONE, Method: AUTORADIOGRAPHY): active; positive
mutagenic call (Test System: UDS HUMAN FIBROBLASTS, Strain/Indicator: THY INCORP (NON-S-PHASE), Metabolic Activation: NONE, Method: LIQUID SCINTILLATION COUNTING): active; positive
mutagenic call (Test System: UDS HUMAN LYMPHOCYTES, Strain/Indicator: THY INCORP (NON-S-PHASE), Metabolic Activation: NONE, Method: LIQUID SCINTILLATION COUNTING): active; positive
mutagenic call (Test System: UDS RODENT CELLS, Strain/Indicator: THY INCORP (NON-S-PHASE), Metabolic Activation: NONE, Method: AUTORADIOGRAPHY): active; positive
mutagenic call (Test System: UDS RODENT CELLS, Strain/Indicator: THY INCORP (NON-S-PHASE), Metabolic Activation: NONE, Method: LIQUID SCINTILLATION COUNTING): active; positive
mutagenic call (Test System: UDS RODENT HEPATOCYTES, Strain/Indicator: THY INCORP (NON-S-PHASE), Method: LIQUID SCINTILLATION COUNTING): active; positive
mutagenic call (Test System: UDS RODENT PRIMARY CELLS, Strain/Indicator: THY INCORP (NON-S-PHASE), Metabolic Activation: NONE, Method: AUTORADIOGRAPHY): active; positive
